Reference: patent US5622976A, “Oxadiazole derivatives having acetylcholinesterase-inhibitory and muscarinic agonist activity” (priority 1991, dated 1997)

Target: T1, acetylcholinesterase (Rattus norvegicus, UniProt P37136)
T1 construct: obtained from rat's corpus striatum; from tissue; host or cells: rat corpus striatum
Experiment: Inhibition of acetylcholinesterase (enzyme assay)
Assay type: biochemical
Conditions: acetylcholinesterase from rat's corpus striatum
Protocol: The ability to inhibit acetylcholinesterase was determined by the method (enzyme assay) described in Clinica Chimica Acta, 115 (1981) 163-170. The acetylcholinesterase used in this test was obtained from rat's corpus striatum.

T1 sequence (P37136 32-614): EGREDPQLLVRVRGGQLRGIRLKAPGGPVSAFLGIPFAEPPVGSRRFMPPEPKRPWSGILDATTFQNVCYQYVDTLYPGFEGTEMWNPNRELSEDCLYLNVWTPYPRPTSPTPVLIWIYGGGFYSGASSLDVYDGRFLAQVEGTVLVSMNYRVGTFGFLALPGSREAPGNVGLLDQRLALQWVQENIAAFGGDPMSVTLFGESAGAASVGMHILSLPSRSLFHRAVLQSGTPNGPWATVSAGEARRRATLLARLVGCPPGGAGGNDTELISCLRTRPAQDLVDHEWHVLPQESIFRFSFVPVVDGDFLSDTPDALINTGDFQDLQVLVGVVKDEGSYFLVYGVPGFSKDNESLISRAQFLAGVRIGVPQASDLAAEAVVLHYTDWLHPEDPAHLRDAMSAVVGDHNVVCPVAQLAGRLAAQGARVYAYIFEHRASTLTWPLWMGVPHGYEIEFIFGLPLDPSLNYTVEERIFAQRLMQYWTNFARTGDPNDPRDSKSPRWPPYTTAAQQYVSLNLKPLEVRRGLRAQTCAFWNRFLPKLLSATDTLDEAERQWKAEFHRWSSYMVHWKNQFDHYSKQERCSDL

SMILES: O=C(NCCC1CCN(Cc2ccccc2)CC1)c1noc(C2CN3CCC2CC3)n1 (centres unmarked) [(a)]
- IC50: 8 nM

SMILES: O=C(NCCC1CCN(Cc2ccccc2)CC1)c1noc(-c2ccc([N+](=O)[O-])cc2)n1 [(b)]
- IC50: 1.7 nM
